Experiments:
[1] = tested on: human peripheral blood (PB) lymphocytes; experiment: In vitro mammalian cell micronucleus test; conditions: 4 hours with and without S9, 24 hours without S9; compared with negative controls
Description: Compound 1 was tested in the in vitro mammalian cell micronucleus test in human peripheral blood (PB) lymphocytes in the presence and absence of a metabolic activation system, Aroclor-induced rat liver fraction (S9), for 4 hours, and in the absence of S9 for 24 hours. The highest concentration tested was 481 μg/mL. Dimethyl sulfoxide (DMSO) was used as the solvent. […] In addition, 2 lower concentrations with appropriate concentration and cytotoxicity spacing were chosen for micronucleus scoring in each regime.

[2] = tested on: Normal T lymphocytes in BM samples; experiment: PharmaFlow test, normal T lymphocytes in AML patient BM samples; assay type: cell-based, human; conditions: BM samples of AML patients; for Compound 1 all but 1 patient
[3] = tested on: leukemic cells from TP53 WT AML patients; experiment: PharmaFlow test (Vivia), cytotoxic effect on leukemic cells in AML patient BM samples; assay type: cell-based, human; conditions: AML patient samples

Q: `O=P1(N(CCCl)CCCl)NCCCO1` (stereo not shown) [cyclophosphamide monohydrate, reference compound] was tested. Which “proportion of micronucleated binucleate cells (MBC)” value [1] did it give?
A: statistically significant increases

Q: For `COC(=O)Nc1nc2ccc(C(=O)c3cccs3)cc2[nH]1` [nocodazole, reference compound], which “proportion of micronucleated binucleate cells (MBC)” value [1] is on record?
A: statistically significant increases

Q: Which “cytotoxicity in T lymphocytes” value [2] does the source give for `COc1cc(C(=O)O)ccc1NC(=O)[C@@H]1N[C@@H](CC(C)(C)C)[C@](C#N)(c2ccc(Cl)cc2F)[C@H]1c1cccc(Cl)c1F` [RG7388, idasanutlin, reference compound] here?
A: pan-cytotoxicity

Q: What about the “cytotoxicity in leukemic cells” value [3] of the same compound?
A: pan-cytotoxicity

Reference: patent US20220387405A1, “METHODS OF TREATMENT WITH N-((R)-1-(3-CHLOROPYRIDIN-2-YL)-2,2,2-TRIFLUOROETHYL)-2-((S)-2,6-DIOXOPIPERIDIN-3-YL)-1-OXOISOINDOLINE-5-CARBOXAMIDE” (CELGENE CORPORATION, priority 2021, published 2022)
